Measurements: US9426990B2, “Herbicidal agents containing aclonifen” (BAYER CROPSCIENCE AG, priority 2012, dated 2016)

Legend:
[1] = test system: Lolium spp. resistant to HRAC group A; assay: greenhouse experiment, post-emergence treatment of resistant ryegrass biotypes (HRAC group A resistant); format: in vivo; settings: post-emergence (PO, BBCH 11), about 3 weeks after application, dose g of AS/ha: aclonifen 225, pendimethalin 300, picolinafen 25, mixture 225 + 300 + 25, pinoxaden + cloquintocet-mexyl 60 + 15
Description: (§1) In the standard design of the test, seeds of various broad-leaved weed and weed grass biotypes (origins) were sown in a 8-13 cm diameter pot filled with natural soil of a standard field soil (loamy silt; non-sterile) and covered with a covering soil layer of about 1 cm. The pots were then cultivated in a greenhouse (12-16 h light, temperature day 20-22° C., night 15-18° C.) until the time of application. The pots were treated on a laboratory track sprayer with spray liquors comprising the compositions according to the invention, mixtures of the prior art or components used individually. Application of the active compounds or active compound combinations formulated as WG, WP, EC or otherwise was carried out at the appropriate growth stages of the plants. The amount of water used for spray application was 100-600 l/ha. After the treatment, the plants were returned to the greenhouses.
(§2) About 3 weeks after the application, the soil action or/and foliar action was assessed visually according to a scale of 0-100% in comparison to an untreated comparative group: 0%=no noticeable effect compared to the untreated comparative group; 100%=full effect compared to the untreated comparative group.
(§3) 2. Post-emergence action against weeds: seeds of various broad-leaved weed and weed grass biotypes (origins) were sown in a 8-13 cm diameter pot filled with natural soil of a standard field soil (loamy silt; non-sterile) and covered with a covering soil layer of about 1 cm. The pots were then cultivated in a greenhouse (12-16 h of light, temperature day 20-22° C., night 15-18° C.) until the time of application. […]
(§4) Insofar as herbicidal effects of the compositions according to the invention compared to mixtures of the prior art or compared to components applied individually against economically important mono- and dicotyledonous harmful plants were the center of attention, the synergistic herbicidal activities were calculated using Colby's formula (cf. S. R. Colby; Weeds 15 (1967), 20-22): E^C=(A+B+C)−(A×B+A×C+B×C)/100+(A×B×C)/10000 where: […]

[2] = test system: Lolium spp. resistant to HRAC group B; assay: greenhouse experiment, post-emergence treatment of resistant ryegrass biotypes (HRAC group B resistant); format: in vivo; settings: post-emergence (PO, BBCH 11), about 3 weeks after application, dose g of AS/ha: aclonifen 225, pendimethalin 300, picolinafen 25, mixture 225 + 300 + 25, mesosulfuron + iodosulfuron + mefenpyr 15 + 3 + 45
Description: as §1, §2, §3, §4

| SMILES | herbicidal effect, visual assessment on a scale of 0-100% versus untreated comparative group [1] [%] | herbicidal effect, visual assessment on a scale of 0-100% versus untreated comparative group [2] [%] |
| --- | --- | --- |
| Nc1c([N+](=O)[O-])ccc(Oc2ccccc2)c1Cl [(A) aclonifen, 2-chloro-6-nitro-3-phenoxybenzenamine] | 25 | 50 |
| O=C(Nc1ccc(F)cc1)c1cccc(Oc2cccc(C(F)(F)F)c2)n1 [(C) picolinafen, N-(4-fluorophenyl)-6-[3-(trifluoromethyl)phenoxy]-2-pyridinecarboxamide] | 10 | 5 |
| CCC(CC)Nc1c([N+](=O)[O-])cc(C)c(C)c1[N+](=O)[O-] [(B) pendimethalin, N-(1-ethylpropyl)-3,4-dimethyl-2,6-dinitrobenzenamine] | 5 | 0 |
